# From US4111945A, “Process for the preparation of 3,4,5-trimethoxy-phenyl-(1,4-dimethyl-1,2,3,6-tetrahydro-2-pyridyl)-carb inol” (Laboratories Made, S.A., priority 1976, dated 1978)
# Assays:
# Format in all cases: in vivo
# Swiss ICR albino mice [1] = experiment: Thermal analgesia, hot-plate technique at 55° C.; conditions: for Jumping time (mean ± S.E.M.): 30 mg/kg, intraperitoneal, 30 minutes, hot-plate 55° C., control 50.1 ± 3.16
# Procedure: The thermal analgesia effect was studied in Swiss ICR albino mice. The hot-plate technique at 55° C. was used. The […] were divided into batches of 10.
# The products being studied were administered intraperitoneally and after 30 minutes the animals were placed on the hot-plate, the time in seconds being counted until the animals started to jump. Batches of control animals which had received injections of distilled water only were used.
# Swiss ICR mice = experiment: Acute toxicity, intraperitoneal (Litchfield-Wilcoxon); conditions: Swiss ICR mice of both sexes, 25 ± 2 g
# Procedure: (§1) Acute toxicity studies were made in Swiss ICR mice of both sexes weighing 25 ± 2 g. The products were administered intraperitoneally. Acute toxicity calculations were made by the Litchfield-Wilcoxon method.
# Swiss ICR albino mice [2] = experiment: Chemical analgesia, acetic acid writhing technique
# Procedure: The analgesic effect was studied in Swiss ICR albino mice using the acetic acid writhing technique. The animals were divided into batches of 10.
# The products studied were administered intraperitoneally and after 30 minutes 0.25 ml of 1% acetic acid was injected intraperitoneally. A batch of control animals was given only the acetic acid. The number of writhings made by each mouse in the 20 minutes after the administration of the acetic acid was counted.
# [3] = Acute toxicity, intraperitoneal (Litchfield-Wilcoxon); conditions: mouse, in vivo, ip, Swiss ICR mice of both sexes, 25 ± 2 g, read-out: Lethal Dose 50 (LD50)
# Procedure: as §1
SMILES,Jumping time (mean ± S.E.M.) (Swiss ICR albino mice [1]) [s],Lethal Dose 50 (LD50) (Swiss ICR mice) [mg/kg],thermal analgesic activity (Swiss ICR albino mice [1]; conclusion in words),"No. of writhings (mean ± S.E.M.) (Swiss ICR albino mice [2]; 30 mg./kg., intraperitoneal, 30 minutes before acetic acid, counted over 20 minutes, control 93)","chemical analgesic activity (Swiss ICR albino mice [2]; conclusion in words, compared with dextropropoxyphene)",LD50 [3] [mg/kg]
"CCC(=O)O[C@](Cc1ccccc1)(c1ccccc1)[C@H](C)CN(C)C [Dextropropoxyphene, dextropropoxyphene, reference compound]",91 ± 17.17,140,–,–,–,–
"COc1cc(C(O)C2CC(C)=CCN2C)cc(OC)c1OC (stereo not shown) [Product VIII, 3,4,5-trimethoxyphenyl-(1,4-dimethyl-1,2,3,6-tetrahydro-2-pyridyl)-carbinol]",51.8 ± 5.46,–,lacks thermal analgesic activity,58.8 ± 10.2,same intensity as dextropropoxyphene,201
